Source: patent US11679107B2 (Eisai R&D Management Co., Ltd., priority 2018, dated 2023)
Where two headings read alike, the source gives them in different places.

Columns and labels:
[1] = in vivo; cited from earlier work
[2] = target: T1, SF3b complexes (Homo sapiens, UniProt O75533+Q7RTV0); assay: Scintillation proximity assay (SPA) with [3H]-labelled pladienolide probe; assay type: binding; details: SF3B1 (WT); geometric mean; read-out: SPA-ATS GMean IC50 (nM) SF3B1 (WT)
T1 construct: endogenous in cells; host or cells: Nuclear extracts; A HeLa S3 extract preparation is described for the in vitro splicing assay
Procedure, shortened: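 SF3b complexes captured from nuclear extracts on anti-SF3B1 antibody SPA beads; test compounds pre-incubated 30 min before 2.5 nM [3H]-pladienolide probe added, then 30 min incubation. Bound probe read by scintillation; values from non-linear regression of concentration–response curves.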

[3] = test system: Ad2 variant pre-mRNAs spliced in HeLa S3 nuclear extracts; assay: In vitro splicing assay (IVS), RT-qPCR of spliced product; assay type: biochemical; details: for IC50: geometric mean
Procedure, shortened: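 Ad2 variant pre-mRNA (2 ng) with FTZΔi control RNA in HeLa S3 nuclear extract (8 μg) was pre-incubated with compound or DMSO for 15 min at 30 °C. Splicing ran 90 min at 30 °C after adding 0.5 mM ATP, creatine phosphate and MgCl2. Spliced product was quantified by TaqMan RT-qPCR, normalized to DMSO, and curve-fitted.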

[4] = test system: NCI-H1568 cells (high MCL1); assay: Cell proliferation and viability, CellTiter-Glo, 72 hours; assay type: cell-based; details: for GI50: geometric mean
Procedure, shortened: (§1)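 Cells grown in RPMI-1640 with 10% FBS (Panc 05.04 with added insulin, 15% FBS total) were exposed to an 11-point half-log dilution, typically 10 μM–100 pM, at 0.1% DMSO for 72 h at 37 °C. ATP content was read by CellTiter-Glo luminescence. Percent inhibition was set against a time-zero plate and DMSO vehicle wells, on a −100% (cidal) to 100% (uninhibited growth) scale.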

[5] = test system: Panc 05.04 cells (SF3b K700E mutant); assay: as above; assay type: cell-based; details: for GI50: geometric mean
Procedure, shortened: as §1

[6] = Ad2.1 pre-mRNA substrate, read-out: qPCR-IVS-ATS GMean IC50 (nM) Ad2.1
[7] = Ad2.2 pre-mRNA substrate, read-out: qPCR-IVS-ATS GMean IC50 (nM) Ad2.2
[8] = NCIH1568.1 cells, 72 h, −100% cidal, 0% static, 100% maximal growth
[9] = PANC0504.1 cells, 72 h, −100% cidal, 0% static, 100% maximal growth
[10] = NCI-H1568, 72 h, read-out: CTGlo-ATS GMean GI50 (nM) 72 h NCIH1568.1, NCIH1568.1 cells, 72 h
[11] = Panc 05.04, 72 h, read-out: CTGlo-ATS GMean GI50 (nM) 72 h PANC0504.1, PANC0504.1 cells, 72 h

| Compound | plasma half-life [1] | IC50 [2] [nM] | IC50 [3, 6] [nM] | IC50 [3, 7] [nM] | Ratio Ad2.1/2.2 ([3]; ratio of IVS IC50 Ad2.1 to Ad2.2) | CTGlo-ATS Mean MinResponse % 72 h NCIH1568.1 ([4]; 72 h, NCIH1568.1, -100% = cidal, 0% = static, 100% = uninhibited growth) [%] | GI50 ([4]; NCI-H1568, read-out: CTGlo-ATS GMean GI50 (nM) 72 h NCIH1568.1, 72 h, NCIH1568.1) [nM] | CTGlo-ATS Mean MinResponse % 72 h PANC0504.1 ([5]; 72 h, PANC0504.1, -100% = cidal, 0% = static, 100% = uninhibited growth) [%] | GI50 ([5]; Panc 05.04, read-out: CTGlo-ATS GMean GI50 (nM) 72 h PANC0504.1, 72 h, PANC0504.1) [nM] | GI50 ([4]; NCI-H1568, read-out: CTGlo-ATS GMean GI50 (nM) 72 h NCIH1568.1, NCIH1568.1 cells, 72 h) [nM] | CTGlo-ATS Mean MinResponse % 72 h NCIH1568.1 [4, 8] [%] | CTGlo-ATS Mean MinResponse % 72 h PANC0504.1 [5, 9] [%] | GI50 ([5]; Panc 05.04, read-out: CTGlo-ATS GMean GI50 (nM) 72 h PANC0504.1, PANC0504.1 cells, 72 h) [nM] | GI50 [4, 10] [nM] | GI50 [5, 11] [nM] |
| --- | --- | --- | --- | --- | --- | --- | --- | --- | --- | --- | --- | --- | --- | --- | --- |
| tremelimumab | approximately 22 days | – | – | – | – | – | – | – | – | – | – | – | – | – | – |
| C/C(=C\c1cccc(S(=O)(=O)N2CCCCC2)c1)[C@H]1OC(=O)C[C@H](O)CC[C@H](C)[C@@H](OC(=O)N2CCN(C)CC2)/C=C/[C@@H]1C [Compound 213, [(2S,3S,4E,6R,7S,10R)-10-hydroxy-3,7-dimethyl-12-oxo-2-[(E)-1-(3-piperidin-1-ylsulfonylphenyl)prop-1-en-2-yl]-1-oxacyclododec-4-en-6-yl] 4-methylpiperazine-1-carboxylate] | – | 3.23 | 9.84 | 7.96 | 1.236 | −64.116 | 6.03 | −85.603 | 3.2 | – | – | – | – | – | – |
| C/C(=C\c1cc(F)cc(N(C)C2CCS(=O)(=O)CC2)c1)[C@H]1OC(=O)C[C@H](O)CC[C@H](C)[C@@H](OC(=O)N2CCN(C)CC2)/C=C/[C@@H]1C [Compound 172] | – | 5.58 | 22.6 | 15.4 | – | – | – | – | – | 8.72 | −74.177 | −88.455 | 17.9 | – | – |
| C/C(=C\c1cc(F)cc(N2CCN(C(=O)c3cn(C)cn3)CC2)c1)[C@H]1OC(=O)C[C@H](O)CC[C@H](C)[C@@H](OC(=O)N2CCN(C)CC2)/C=C/[C@@H]1C [Compound 120] | – | 3.97 | 25.3 | 26.5 | – | – | – | – | – | – | −75.164 | −78.098 | – | 11.2 | 9.42 |
| C/C(=C\c1cc(F)cc(N2CCO[C@H](CO)C2)c1)[C@H]1OC(=O)C[C@H](O)CC[C@H](C)[C@@H](OC(=O)N2CCN(C)CC2)/C=C/[C@@H]1C [Compound 76] | – | 4.2 | 21.5 | 17.7 | – | – | – | – | – | – | −77.948 | −90.504 | – | 3.02 | 5.17 |
